Holding throughout (assay type): binding
Common to all, as to set-up: KINOMEscan: ABL1(F317L)-phosphorylated / KINOMEscan: ABL1(H396P)-nonphosphorylated / KINOMEscan: ABL1(H396P)-phosphorylated / KINOMEscan: ABL1(M351T)-phosphorylated / KINOMEscan: ABL1(T315I)-phosphorylated / KINOMEscan: ABL1-nonphosphorylated / KINOMEscan: ABL1-phosphorylated / KINOMEscan: ACVR2A / KINOMEscan: ACVR2B / KINOMEscan: ADCK3 / KINOMEscan: ADCK4 / KINOMEscan: AKT1 / KINOMEscan: AKT3 / KINOMEscan: ALK / KINOMEscan: ARK5 / KINOMEscan: AURKA / KINOMEscan: AURKC / KINOMEscan: BIKE / KINOMEscan: BMPR1A / KINOMEscan: BMPR1B / KINOMEscan: BMX / KINOMEscan: BRK / KINOMEscan: BRSK1 / KINOMEscan: BRSK2 / KINOMEscan: CAMK1 / KINOMEscan: CAMK1D / KINOMEscan: CAMK1G / KINOMEscan: CAMK2A / KINOMEscan: CAMK2B / KINOMEscan: AAK1 / KINOMEscan: CAMK2D / KINOMEscan: CAMK2G / KINOMEscan: ABL1(F317I)-nonphosphorylated / KINOMEscan: ABL1(F317I)-phosphorylated / KINOMEscan: ABL1(F317L)-nonphosphorylated: unit: % Ctrl

Test [1] addresses T1, panel of 442 kinases (Homo sapiens, UniProt P12931).
T1 construct: purchased KINOMEscan
The conditions noted are these: kinase SRC; compound concentration 10 µM. An excerpt: (§1) We assessed the selectivity of members of this scaffold using the KINOMEscan methodology across a near comprehensive panel of 442 kinases [[18,27]].

The target of test [2] is T2, panel of 442 kinases (Homo sapiens, UniProt Q14012).
T2 construct: purchased KINOMEscan
Conditions: Compound Concentration 10 µM.
Excerpt: as §1

For test [3], the target named is T3, panel of 442 kinases (Homo sapiens, UniProt P27361).
T3 construct: purchased KINOMEscan
Conditions: Compound Concentration 10 µM.
Excerpt: as §1

Test [4] has as its target T4, panel of 442 kinases (Homo sapiens, UniProt P00533, L861Q).
T4 construct: purchased KINOMEscan
The conditions noted are these: Compound Concentration 10 µM.
Excerpt: as §1

Molecules are shown by their SMILES.

T2 sequence (Q14012 whole entry): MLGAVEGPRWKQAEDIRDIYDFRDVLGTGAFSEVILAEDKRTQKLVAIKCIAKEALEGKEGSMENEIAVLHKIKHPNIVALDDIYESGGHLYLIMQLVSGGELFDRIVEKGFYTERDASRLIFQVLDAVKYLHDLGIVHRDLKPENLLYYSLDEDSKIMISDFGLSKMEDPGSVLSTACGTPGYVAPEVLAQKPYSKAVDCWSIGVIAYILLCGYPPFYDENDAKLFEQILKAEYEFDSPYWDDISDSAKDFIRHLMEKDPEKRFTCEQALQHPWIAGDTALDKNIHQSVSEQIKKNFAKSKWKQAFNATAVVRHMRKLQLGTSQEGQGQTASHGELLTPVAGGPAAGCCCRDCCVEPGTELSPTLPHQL
T1 sequence (P12931 whole entry): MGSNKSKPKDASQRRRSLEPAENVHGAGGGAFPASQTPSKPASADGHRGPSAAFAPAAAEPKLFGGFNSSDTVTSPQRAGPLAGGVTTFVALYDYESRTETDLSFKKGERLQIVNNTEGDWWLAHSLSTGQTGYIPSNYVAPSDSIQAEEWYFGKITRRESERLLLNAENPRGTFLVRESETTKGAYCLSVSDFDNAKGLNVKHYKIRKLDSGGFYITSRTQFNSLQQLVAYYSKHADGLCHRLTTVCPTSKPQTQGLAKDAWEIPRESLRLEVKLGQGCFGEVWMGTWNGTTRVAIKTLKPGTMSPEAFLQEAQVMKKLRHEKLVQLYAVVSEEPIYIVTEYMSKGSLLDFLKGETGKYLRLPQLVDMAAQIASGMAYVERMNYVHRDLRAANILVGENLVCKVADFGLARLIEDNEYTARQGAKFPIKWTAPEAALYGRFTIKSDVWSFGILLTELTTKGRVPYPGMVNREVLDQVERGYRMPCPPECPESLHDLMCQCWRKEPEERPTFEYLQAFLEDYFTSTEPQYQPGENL
T3 sequence (P27361 whole entry): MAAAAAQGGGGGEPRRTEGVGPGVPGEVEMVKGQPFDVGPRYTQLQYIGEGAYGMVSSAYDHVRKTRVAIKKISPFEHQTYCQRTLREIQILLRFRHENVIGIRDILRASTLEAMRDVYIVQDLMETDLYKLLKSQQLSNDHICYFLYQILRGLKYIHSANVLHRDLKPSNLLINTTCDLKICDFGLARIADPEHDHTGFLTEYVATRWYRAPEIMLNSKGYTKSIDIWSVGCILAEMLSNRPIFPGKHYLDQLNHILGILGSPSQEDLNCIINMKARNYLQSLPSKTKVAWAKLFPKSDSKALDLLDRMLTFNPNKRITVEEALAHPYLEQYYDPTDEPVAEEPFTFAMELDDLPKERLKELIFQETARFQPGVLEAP
T4 sequence (P00533 25-1210 L861Q): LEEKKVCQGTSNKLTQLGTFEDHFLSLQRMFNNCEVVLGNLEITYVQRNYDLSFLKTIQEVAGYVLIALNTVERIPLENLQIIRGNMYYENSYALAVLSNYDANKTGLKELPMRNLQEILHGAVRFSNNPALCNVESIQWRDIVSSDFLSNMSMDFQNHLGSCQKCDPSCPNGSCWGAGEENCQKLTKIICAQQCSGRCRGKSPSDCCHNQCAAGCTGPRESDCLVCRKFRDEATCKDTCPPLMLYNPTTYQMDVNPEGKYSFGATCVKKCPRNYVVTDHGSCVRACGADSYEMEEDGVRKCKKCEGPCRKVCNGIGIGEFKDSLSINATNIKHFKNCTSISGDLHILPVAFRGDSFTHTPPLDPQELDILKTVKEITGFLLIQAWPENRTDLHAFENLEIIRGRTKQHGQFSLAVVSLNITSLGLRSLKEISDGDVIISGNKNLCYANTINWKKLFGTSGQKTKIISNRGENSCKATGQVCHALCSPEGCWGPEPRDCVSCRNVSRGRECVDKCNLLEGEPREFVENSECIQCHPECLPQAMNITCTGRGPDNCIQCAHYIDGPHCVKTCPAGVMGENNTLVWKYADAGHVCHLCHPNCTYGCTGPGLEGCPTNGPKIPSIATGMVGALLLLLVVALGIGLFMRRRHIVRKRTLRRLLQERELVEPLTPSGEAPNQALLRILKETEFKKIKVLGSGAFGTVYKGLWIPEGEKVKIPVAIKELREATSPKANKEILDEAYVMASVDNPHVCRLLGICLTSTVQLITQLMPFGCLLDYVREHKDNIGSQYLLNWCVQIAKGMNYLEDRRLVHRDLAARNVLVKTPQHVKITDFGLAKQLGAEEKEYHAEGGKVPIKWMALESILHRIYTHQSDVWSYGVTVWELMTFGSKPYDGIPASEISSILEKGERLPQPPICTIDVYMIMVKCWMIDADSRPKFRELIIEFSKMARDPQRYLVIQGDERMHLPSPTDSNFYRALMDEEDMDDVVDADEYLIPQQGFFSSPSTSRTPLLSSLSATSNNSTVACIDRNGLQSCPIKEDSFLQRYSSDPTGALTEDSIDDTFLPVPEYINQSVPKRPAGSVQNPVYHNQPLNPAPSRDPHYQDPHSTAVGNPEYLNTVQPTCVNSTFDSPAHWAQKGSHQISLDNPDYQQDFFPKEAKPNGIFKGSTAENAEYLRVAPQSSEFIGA

As for `COc1cc(C(=O)N2CCC(N3CCN(C)CC3)CC2)ccc1Nc1ncc2c(n1)N(C1CCCC1)c1ccccc1C(=O)N2C` [Compound 25, 11-cyclopentyl-2-((2-methoxy-4-(4-(4-methylpiperazin-1-yl)piperidine-1-carbonyl)phenyl)amino)-5-methyl-5H-benzo[e]pyrimido[5,4-b][1,4]diazepin-6(11H)-one], the “% Ctrl, SRC” value in test [1] is reported as 90 % Ctrl. Besides, the “KINOMEscan: CAMK1” value in test [2] came out at 48. Further, the “KINOMEscan: ERK1” value in test [3] amounted to 96. The “KINOMEscan: EGFR(L861Q)” value in test [4] was determined as 89.

As for `COc1cc(C(=O)N2CCC(N3CCN(C)CC3)CC2)ccc1Nc1ncc2c(n1)N1CCc3cccc(c31)C(=O)N2C` [Compound 24], the “% Ctrl, SRC” value in test [1] was 95 % Ctrl. Further, the “KINOMEscan: CAMK1” value in test [2] was found to be 68. Besides, in test [4], the “KINOMEscan: EGFR(L861Q)” value turned out to be 82.

On to `COc1cc(C(=O)N2CCC(N3CCN(C)CC3)CC2)ccc1Nc1ncc2c(n1)N(C)c1ccccc1C(=O)N2C` [15 (LRRK2-IN-1)], for which, in test [1], the “% Ctrl, SRC” value came out at 100 % Ctrl. The “KINOMEscan: CAMK1” value in test [2] was 55. Further, in test [3], the “KINOMEscan: ERK1” value was 100. Also, the “KINOMEscan: EGFR(L861Q)” value in test [4] is on record as 100.

On to `CCOc1cc(C(=O)N2CCC(N3CCN(C)CC3)CC2)ccc1Nc1ncc2c(n1)N(C1CCCC1)c1ccccc1C(=O)N2C` [Compound 26], for which the “% Ctrl, SRC” value in test [1] amounted to 100 % Ctrl. Further, the “KINOMEscan: CAMK1” value in test [2] came out at 37. In addition, in test [3], the “KINOMEscan: ERK1” value was 100. In test [4], the “KINOMEscan: EGFR(L861Q)” value is 100.
